Source: patent US6750244B2, “Compounds active at a novel site on receptor-operated calcium channels useful for treatment of neurological disorders and diseases” (NPS Pharmaceuticals, Inc., priority 1993, dated 2004)
Read-outs that look alike come from different tables or passages of the source. Marks after values point to notes of the source that are not given here.

Tests used:
dopamine uptake site = molecular target: T1, dopamine uptake site (Cavia porcellus, UniProt H0WCX4); assay: Dopamine uptake binding assay: [3H]WIN-35,428 binding to guinea pig striatal membranes
T1 construct: from tissue; host or cells: guinea pig striatal membranes (per the assay title)

NMDA receptor [1] = assay: Inhibition of NMDA/glycine-induced increases in intracellular calcium in cultured rat cerebellar granule cells (RCGC); format: cell-based; conditions: NMDA/glycine-induced increases in intracellular calcium, cultured rat cerebellar granule cells; read-out: IC50 (μM) vs. NMDA
serotonin uptake site = molecular target: T2, serotonin uptake site (Rattus norvegicus, UniProt P31652); assay: Serotonin uptake binding assay: [3H]citalopram binding to rat forebrain membranes
T2 construct: from tissue; host or cells: rat forebrain membranes (per the assay title)

[2] = molecular target: T3, norepinephrine uptake site (Rattus norvegicus, UniProt Q63380); assay: Norepinephrine uptake binding assay: [3H]desipramine binding to rat cortical membranes
T3 construct: from tissue; host or cells: rat cortical membranes (per the assay title)

[3] = molecular target: NMDA receptor-ionophore complex (site labeled by [3H]MK-801); assay: Inhibition of [3H]MK-801 binding in rat cortical/hippocampal washed membrane preparations; conditions: for IC50: read-out: IC50 (μM) vs. [3H]MK-801, rat cortical/hippocampal washed membranes
L-type calcium channel = test system: T4, L-type calcium channel; assay: Inhibition of KCl depolarization-induced increases in intracellular calcium in cultured rat cerebellar granule cells; format: cell-based; conditions: cultured rat cerebellar granule cells; read-out: L-type calcium channel: estimated IC50, KCl depolarization-induced increases in intracellular calcium
T4 construct: L-type calcium channel: estimated IC50, KCl depolarization-induced increases in intracellular calcium; other: cultured
From the text: The ability of arylalkylamines to inhibit dihydropyridine-sensitive Ca^2+ channels was examined in cerebellar granule cells and a rat aortic smooth muscle cell line, A7r5 cells.

[4] = test system: central muscarinic cholinergic receptor; format: binding, rat
motor performance = assay: Acute motor impairment (rotorod) in mice; conditions: Frings mice; for TD50, acute motor impairment: i.c.v. injection
Procedure: (§1) In this assay, Frings and CF1 mice were injected with test compound and placed on a knurled rod which rotated at a speed of 6 rpm. The ability of the mice to maintain equilibrium for long periods of time was determined; those mice that were unable to maintain equilibrium on the rotorod for 1 min in each of 3 trials were considered impaired.

sound-induced seizures = assay: Sound-induced seizures in Frings mice (reflex epilepsy); format: in vivo; conditions: for IC50, prevention of sound-induced seizures: intracerebroventricular (i.c.v.) injection; for ED50: Mus musculus, ip, Frings mice
induction of LTP = test system: induction of LTP; design: species or system rat; conditions: for induction of LTP (p<0.05): slices superfused 30-60 min
NMDA receptor [5] = conditions: rat hippocampal slices
Procedure: Glutamate-mediated transmission at synapses of Schaffer collateral fibers and CA1 pyramidal cells was measured in slices of rat brain containing the hippocampus. This assay measures electrophysiologically the postsynaptic depolarization caused by the presynaptic release of glutamate, and can readily distinguish synaptic transmission mediated by NMDA or AMPA receptors.

[6] = test system: mean arterial blood pressure
in vivo = conditions: mouse, in vivo, ip
Procedure: as §1

focal ischemic stroke = assay: Rat model of focal ischemic stroke (vessel occlusion); format: in vivo, rats; conditions: i.p. 2 mg/kg 30 min prior to vessel occlusion and 2 mg/kg 3 hr post-occlusion
behavior = assay: Behavioral effects in conscious male NMRI mice
[7] = test system: maximal electroshock-induced seizures; assay: Maximal electroshock-induced seizures in mice; format: in vivo; conditions: Mus musculus, ip; mice
seizure threshold = assay: i.v. Metrazol test (seizure threshold) in mice; format: in vivo; conditions: 36.5 and 108 mg/kg i.p.

T3 sequence (Q63380 1-617): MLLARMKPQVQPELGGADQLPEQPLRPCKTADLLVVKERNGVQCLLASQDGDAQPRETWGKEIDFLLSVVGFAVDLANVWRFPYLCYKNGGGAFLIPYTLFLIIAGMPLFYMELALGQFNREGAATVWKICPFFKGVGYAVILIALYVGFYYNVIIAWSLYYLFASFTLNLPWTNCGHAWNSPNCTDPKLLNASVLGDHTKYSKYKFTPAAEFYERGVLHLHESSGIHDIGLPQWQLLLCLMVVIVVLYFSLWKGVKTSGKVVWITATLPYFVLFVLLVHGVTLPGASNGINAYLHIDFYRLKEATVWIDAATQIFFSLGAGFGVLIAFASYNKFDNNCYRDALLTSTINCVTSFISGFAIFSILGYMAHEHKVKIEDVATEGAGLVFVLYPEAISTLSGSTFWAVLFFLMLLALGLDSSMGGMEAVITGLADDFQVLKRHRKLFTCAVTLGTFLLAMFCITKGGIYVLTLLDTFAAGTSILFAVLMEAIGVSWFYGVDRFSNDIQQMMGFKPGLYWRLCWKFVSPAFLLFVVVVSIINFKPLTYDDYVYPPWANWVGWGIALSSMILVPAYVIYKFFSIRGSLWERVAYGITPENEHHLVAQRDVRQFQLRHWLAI
T1 sequence (H0WCX4 1-619): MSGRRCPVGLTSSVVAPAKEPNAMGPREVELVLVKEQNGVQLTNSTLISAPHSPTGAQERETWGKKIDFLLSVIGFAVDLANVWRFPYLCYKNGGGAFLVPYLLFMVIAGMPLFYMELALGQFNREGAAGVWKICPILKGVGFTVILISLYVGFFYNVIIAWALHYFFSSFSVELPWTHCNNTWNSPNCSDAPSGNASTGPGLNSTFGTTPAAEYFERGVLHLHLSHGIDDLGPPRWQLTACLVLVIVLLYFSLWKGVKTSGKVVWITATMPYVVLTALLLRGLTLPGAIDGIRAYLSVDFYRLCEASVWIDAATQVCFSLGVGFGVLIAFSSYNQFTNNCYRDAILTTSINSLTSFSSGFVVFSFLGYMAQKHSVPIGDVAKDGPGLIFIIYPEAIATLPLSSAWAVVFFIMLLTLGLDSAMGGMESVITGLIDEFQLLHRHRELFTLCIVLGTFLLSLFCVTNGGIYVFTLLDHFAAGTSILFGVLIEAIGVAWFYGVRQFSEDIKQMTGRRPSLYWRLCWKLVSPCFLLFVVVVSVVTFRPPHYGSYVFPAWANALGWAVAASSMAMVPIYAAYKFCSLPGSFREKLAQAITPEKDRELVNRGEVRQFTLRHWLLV
T2 sequence (P31652 whole entry): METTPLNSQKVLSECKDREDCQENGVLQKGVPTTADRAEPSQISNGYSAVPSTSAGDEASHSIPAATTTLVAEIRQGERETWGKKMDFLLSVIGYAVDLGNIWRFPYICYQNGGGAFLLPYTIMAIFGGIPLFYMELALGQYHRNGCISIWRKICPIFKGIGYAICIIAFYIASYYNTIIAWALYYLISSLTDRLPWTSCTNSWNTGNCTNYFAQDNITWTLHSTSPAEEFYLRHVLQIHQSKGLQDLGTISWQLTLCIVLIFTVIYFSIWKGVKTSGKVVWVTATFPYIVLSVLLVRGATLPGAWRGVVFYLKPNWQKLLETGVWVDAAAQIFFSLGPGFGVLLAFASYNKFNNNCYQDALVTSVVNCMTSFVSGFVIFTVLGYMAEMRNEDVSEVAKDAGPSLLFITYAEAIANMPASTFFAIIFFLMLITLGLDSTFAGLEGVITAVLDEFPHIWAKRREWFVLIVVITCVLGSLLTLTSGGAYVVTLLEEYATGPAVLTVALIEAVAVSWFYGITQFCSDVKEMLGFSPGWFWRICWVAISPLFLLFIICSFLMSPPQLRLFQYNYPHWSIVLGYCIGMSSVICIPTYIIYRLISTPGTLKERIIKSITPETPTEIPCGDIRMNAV

N[C@H]1CCCC1C(c1cccc(F)c1)c1cccc(F)c1 (stereo partly drawn) [Compound 63]
Monoamine uptake binding assays: dopamine uptake binding assay, percent block (dopamine uptake site; at 0.1 μM): 64% at
Monoamine uptake binding assays: dopamine uptake binding assay, percent block (dopamine uptake site; at 10 μM): 0.1^f98% at
IC50 (NMDA receptor [1]): 0.093 µM
Monoamine uptake binding assays: serotonin uptake binding assay, percent block (serotonin uptake site; at 0.1 μM): 10^g13% at
Monoamine uptake binding assays: serotonin uptake binding assay, percent block (serotonin uptake site; at 10 μM): 0.1^h85% at
Monoamine uptake binding assays: norepinephrine uptake binding assay, percent block ([2]; at 0.1 μM): 10^f7% at
Monoamine uptake binding assays: norepinephrine uptake binding assay, percent block ([2]; at 10 μM): 0.1^g76% at
IC50 [3]: 0.245 µM
IC50 (L-type calcium channel): 1.9 µM
Central muscarinic cholinergic receptor: percent block of [3H]QNB binding ([4]; at 0.1 μM): 11% at
Central muscarinic cholinergic receptor: percent block of [3H]QNB binding ([4]; at 10 μM): 0.181% at

NCCCOCCCCOCCCNC(=O)Cc1cccc2ccccc12 [Compound 14]
TD50, acute motor impairment (motor performance): 30.8 µg
IC50 (NMDA receptor [1]): 8.8 µM
IC50, prevention of sound-induced seizures (sound-induced seizures): 13.9 µg

CC(C(O)c1ccc(O)cc1)N1CCC(Cc2ccccc2)CC1 (stereo not drawn) [ifenprodil, reference compound]
induction of LTP (p<0.05) (induction of LTP): significantly blocked

N[C@@H]1CCCC1C(c1cccc(F)c1)c1cccc(F)c1 (stereo partly drawn) [Compound 64]
Monoamine uptake binding assays: dopamine uptake binding assay, percent block (dopamine uptake site; at 0.1 μM): 50% at
Monoamine uptake binding assays: dopamine uptake binding assay, percent block (dopamine uptake site; at 10 μM): 0.1^f99% at
IC50 (NMDA receptor [1]): 0.309 µM
Monoamine uptake binding assays: serotonin uptake binding assay, percent block (serotonin uptake site; at 0.1 μM): 10^g29% at
Monoamine uptake binding assays: serotonin uptake binding assay, percent block (serotonin uptake site; at 10 μM): 0.1^h68% at
Monoamine uptake binding assays: norepinephrine uptake binding assay, percent block ([2]; at 0.1 μM): 8% at
Monoamine uptake binding assays: norepinephrine uptake binding assay, percent block ([2]; at 10 μM): 0.1^g65% at
IC50 [3]: 0.851 µM
Central muscarinic cholinergic receptor: percent block of [3H]QNB binding ([4]; at 0.1 μM): 11% at
Central muscarinic cholinergic receptor: percent block of [3H]QNB binding ([4]; at 10 μM): 0.183% at

NC(CCCP(=O)(O)O)C(=O)O (stereo not drawn) [AP5, reference compound]
induction of LTP (p<0.05) (induction of LTP): significantly blocked
IC50 (NMDA receptor [1]): 15 µM

NC(CCCCCP(=O)(O)O)C(=O)O (stereo not drawn) [AP7, reference compound]
induction of LTP (p<0.05) (induction of LTP): significantly blocked

NCCCNCCCNCCCNC(=O)Cc1c[nH]c2ccc(F)cc12 [Compound 9]
TD50, acute motor impairment (motor performance): 14.8 µg
Suppression of NMDA Receptor-Mediated Synaptic Transmission (concentration which suppresses) (NMDA receptor [5]): 10 to 100 µM
LTP Assay (block of the induction of LTP) (induction of LTP; at 300 μM): no block
IC50 (NMDA receptor [1]): 1.2 µM
% inhibition of [3H]MK-801 binding at the stated concentration (IC50 study incomplete) ([3]; at 100 μM): (10% at 100 μM)^d
IC50 [3]: > 100 µM
IC50, prevention of sound-induced seizures (sound-induced seizures): 4.77 µg
Drop in Mean Arterial Blood Pressure ([6]; 4.5 μmoles/kg i.v., rats): 75 mm Hg at
Drop in Mean Arterial Blood Pressure: duration ([6]; 4.5 μmoles/kg i.v., rats): i.v., 90 min
duration of the hypotensive effect ([6]; systemic administration in rats): approximately 30 min

NCCC(c1cccc(Cl)c1)c1cccc(Cl)c1 [Compound 31, 3,3-bis(3-chlorophenyl)-1-propylamine]
TD50 (in vivo; Frings): 10 to 20 mg/kg
IC50 (NMDA receptor [1]): 0.052 µM
IC50 [3]: 1.3 µM
ED50 (sound-induced seizures): 6 mg/kg

NCCC(Oc1cccc(F)c1)c1cccc(F)c1 (stereo not drawn) [Compound 119]
TD50 (in vivo; Frings): 26.3 mg/kg
IC50 (NMDA receptor [1]): 0.115 µM
IC50 [3]: 0.087 µM
ED50 (sound-induced seizures): 7 mg/kg

NCCC(Oc1ccccc1F)c1cccc(F)c1 (stereo not drawn) [Compound 122]
TD50 (in vivo; Frings): 15.3 mg/kg
IC50 (NMDA receptor [1]): 0.209 µM
IC50 [3]: 0.342 µM
ED50 (sound-induced seizures): 4.7 mg/kg

Cc1ccc(F)cc1C(CCN)c1cc(F)ccc1C [Compound 58, 3,3-bis(3-fluoro-6-methylphenyl)-1-propylamine]
TD50 (in vivo; Frings): 14.5 mg/kg
Monoamine uptake binding assays: dopamine uptake binding assay, percent block (dopamine uptake site; at 0.1 μM): 0% at
Monoamine uptake binding assays: dopamine uptake binding assay, percent block (dopamine uptake site; at 10 μM): 0.1^f45% at
IC50 (NMDA receptor [1]): 0.028 µM
Monoamine uptake binding assays: serotonin uptake binding assay, percent block (serotonin uptake site; at 0.1 μM): 10^g27% at
Monoamine uptake binding assays: serotonin uptake binding assay, percent block (serotonin uptake site; at 10 μM): 0.1^h95% at
Monoamine uptake binding assays: norepinephrine uptake binding assay, percent block ([2]; at 0.1 μM): 10^f1% at
Monoamine uptake binding assays: norepinephrine uptake binding assay, percent block ([2]; at 10 μM): 0.1^g67% at
IC50 [3]: 0.203 µM
neuroprotectant activity in a rat model of focal ischemic stroke (focal ischemic stroke): no significant neuroprotectant activity
ED50 (sound-induced seizures): 0.9 mg/kg
IC50 (L-type calcium channel): 2.6 µM
no significant cardiovascular activity in anesthetized rats at doses up to ([6]; i.v.): up to 2 mg/kg
Central muscarinic cholinergic receptor: percent block of [3H]QNB binding ([4]; at 0.1 μM): 1% at
Central muscarinic cholinergic receptor: percent block of [3H]QNB binding ([4]; at 10 μM): 0.148% at

CC(CN)C(c1cccc(Cl)c1)c1cccc(Cl)c1 (stereo not drawn) [Compound 46]
TD50 (in vivo; Frings): 18 to 21 mg/kg
Monoamine uptake binding assays: dopamine uptake binding assay, percent block (dopamine uptake site; at 0.1 μM): 40% at
Monoamine uptake binding assays: dopamine uptake binding assay, percent block (dopamine uptake site; at 10 μM): 0.1^f97% at
IC50 (NMDA receptor [1]): 0.013 µM
Monoamine uptake binding assays: serotonin uptake binding assay, percent block (serotonin uptake site; at 0.1 μM): 10^g10% at
Monoamine uptake binding assays: serotonin uptake binding assay, percent block (serotonin uptake site; at 10 μM): 0.1^h75% at
Monoamine uptake binding assays: norepinephrine uptake binding assay, percent block ([2]; at 0.1 μM): 10^f7% at
Monoamine uptake binding assays: norepinephrine uptake binding assay, percent block ([2]; at 10 μM): 0.1^g64% at
IC50 [3]: 5.2 µM
neuroprotectant activity in a rat model of focal ischemic stroke (focal ischemic stroke): no significant neuroprotectant activity
ED50 (sound-induced seizures): 25 mg/kg
IC50 (L-type calcium channel): 0.676 µM
Central muscarinic cholinergic receptor: percent block of [3H]QNB binding ([4]; at 0.1 μM): 33% at.
Central muscarinic cholinergic receptor: percent block of [3H]QNB binding ([4]; at 10 μM): 0.189% at

CC(CN)C(c1cccc(F)c1)c1cccc(F)c1 (stereo not drawn) [Compound 21, 3,3-bis(3-fluorophenyl)-2-methyl-1-propylamine]
TD50 (in vivo; Frings): 15.3 mg/kg
IC50 (NMDA receptor [1]): 0.038 µM
IC50 [3]: 0.457 µM
ED50 (sound-induced seizures): 3.41 mg/kg

NCCCOCCCCOCCCNC(=O)Cc1c[nH]c2ccc(F)cc12 [Compound 12]
TD50, acute motor impairment (motor performance): 30.2 µg
IC50 (NMDA receptor [1]): 6 µM
IC50 [3]: 98 µM
IC50, prevention of sound-induced seizures (sound-induced seizures): 12.2 µg
no effect on mean arterial blood pressure / no (significant) cardiovascular activity at doses up to ([6]; i.v., rats): ≤ 37.3 µmol/kg
no effect on mean arterial blood pressure / no (significant) cardiovascular activity at doses up to ([6]; i.v., rats, listed as Compounds 12): up to 37.3 μmoles/kg

C[C@@H](N)CC(c1cccc(F)c1)c1cccc(F)c1 [Compound 51, 3,3-bis(3-fluorophenyl)-1-methyl-1-propylamine]
TD50 (motor impairment) (motor performance; i.p.): 13.6 mg/kg
IC50 (NMDA receptor [1]): 1.1 µM
IC50 [3]: 4.5 µM
ED50 (sound-induced seizures): 9.1 mg/kg

C[C@H](CN)C(c1cccc(F)c1)c1cccc(F)c1 [Compound 34, 3,3-bis(3-fluorophenyl)-2-methyl-1-propylamine]
behavioral effects (behavior; 2 mg/kg i.p.): hyperthermia
behavioral effects (behavior; 4 mg/kg i.p.): no behavioral effects
behavioral effects (behavior; 8 mg/kg i.p.): excitation, increased reactivity to touch, and hypothermia
behavioral effects (behavior; 64 mg/kg i.p.): convulsions
behavioral effects (behavior; 16 and 32 mg/kg i.p.): excitation, Straub tail, tremor, jumping, stereotypies, hypothermia, and mydriasis
behavioral effects (behavior; 128 and 256 mg/kg i.p.): convulsions and death
TD50 (in vivo; Frings): 10 to 15 mg/kg
Monoamine uptake binding assays: dopamine uptake binding assay, percent block (dopamine uptake site; at 0.1 μM): 60% at
Monoamine uptake binding assays: dopamine uptake binding assay, percent block (dopamine uptake site; at 10 μM): 0.1^f99% at
IC50 (NMDA receptor [1]): 0.426 µM
Monoamine uptake binding assays: serotonin uptake binding assay, percent block (serotonin uptake site; at 0.1 μM): 10^g12% at
Monoamine uptake binding assays: serotonin uptake binding assay, percent block (serotonin uptake site; at 10 μM): 0.1^h79% at
Monoamine uptake binding assays: norepinephrine uptake binding assay, percent block ([2]; at 0.1 μM): 10^f10% at
Monoamine uptake binding assays: norepinephrine uptake binding assay, percent block ([2]; at 10 μM): 0.1^g64% at
IC50 [3]: 2.7 µM
ED50 (sound-induced seizures): 22 mg/kg
Central muscarinic cholinergic receptor: percent block of [3H]QNB binding ([4]; at 0.1 μM): 25% at
Central muscarinic cholinergic receptor: percent block of [3H]QNB binding ([4]; at 10 μM): 0.199% at

NC(=O)CC(c1cccc(F)c1)c1cccc(F)c1 [Compound 151, 3,3-Bis(3-fluorophenyl)propanamide]
TD50 (in vivo): 108 mg/kg
ED50 [7]: 36.5 mg/kg
IC50 (NMDA receptor [1]): 54.9 µM
IC50 [3]: > 100 µM
seizure threshold, i.v. Metrazol test (seizure threshold): a significant increase in seizure threshold

NCCC(Oc1cccc(Cl)c1)c1cccc(F)c1 (stereo not drawn) [Compound 120]
TD50 (in vivo; Frings): 20 to 30 mg/kg
IC50 (NMDA receptor [1]): 0.101 µM
IC50 [3]: 0.074 µM
ED50 (sound-induced seizures): 4.77 mg/kg
